From EP1021178B1, “SELENOPHENE ANTI-TUMOR AGENTS” (Purdue Research Foundation, priority 1996, dated 1997) come the findings set out here.

Common to all, as to test: NCI human tumor cell panel
Assay type in all cases: cell-based

Test [1] has as its system M14. As to conditions: M14, read-out: Log10 LC50 (converted). The text has this:
(§1) Considering the diversity of tumors in terms of cell type, morphology, growth rate and other cellular characteristics, the U.S. National Cancer Institute (NCI) has developed a "disease-oriented" approach to antitumor activity screening (M.R. Boyd, in "Principle of Practice of Oncology" J.T. Devita, S. Hellman, S.A. Rosenberg (Eds.) Vol. 3, PPO Update, No. 10, 1989). This in vitro prescreening system is based on the measurement of antitumor cytotoxicity against human tumor cell line panels consisting of approximately 60 cell lines of major human tumors (including leukemia and slower growing tumor cells such as lung, colon, breast, skin, kidney, etc.). The most important advantage of the new in vitro screening panels is the opportunity to identify compounds that are selectively more cytotoxic to cells of slowly growing solid tumors than to rapidly growing leukemia cells.
(§2) The cytotoxic activity of the present selenophene compounds have been measured utilizing two different assays or screens. The first screen measures the cytotoxicity against a panel of sixty different human tumor cell lines. This assay provides data regarding the general cytotoxicity of an individual compound. In particular this type of assay is useful in identifying compounds which have enhanced cytotoxic activity against slow growing tumors as compared to faster growing tumor cells such as leukemia tumor cell lines. The identification of such compounds is critical since previously identified antitumor agents have low cytotoxic activity against slower growing tumors. […] The specificity of a cytotoxic compound for tumor cell lines relative to normal cells is an important characteristic of an effective antitumor agent.
(§3) Antitumor cytotoxicity data generated from the National Cancer Institute human tumor cell panels can also be expressed in a graphic pattern (mean graph) to display differential cell growth inhibition (K.D. Paull, R.H. Shoemaker, L. Hodes, A. Monks, D.A. Scudiero, L. Rubinstein, J. Plowman and M.R. Boyd, J. Nail. Cancer Inst., 81, 1088, 1989.) In the mean graph, the arithmetic mean of the logarithm of the GI50 (50% growth inhibition), TGI (total growth inhibition) or LC50 (50% lethal concentration) values is used as an anchor point. […] The length of a bar is indicative of differential cytotoxicity against a specific type of tumor cells or tumor panels.
(§4) The antitumor cytotoxicity of the selenophene compounds tested in those in vitro assays was measured by a microculture assay using either a 3-(4,5-dimethylthiazol-2-yl)-2,5-diphenyltetrazolium bromide (MTT) or sulforhodamine B (SRB) based assay. [M.R. Boyd in "Principles and Practices of Oncology," V.T. DeVita, Jr.]. The experiments were conducted at Purdue University in 96-well microtiter plates and the cytotoxic effects of the selenophene compounds on those cells were measured by cell count using a Coulter Z.F. counter (Hialeah, FL). The results are expressed as GI50, the concentration of drug at which cell numbers are reduced to 50% of control cell culture [T.C.K. Chan, C.J. Chang, N.M. Koonchanok and R.L. Geahlen, Biochem. Biophys. Res. Commun., 193, 1152, (1993); S. Hellman and S.A. Rosenberg (Eds.), Vol. 3, PPO Updates, Number 10, (1989).]
(§5) This in vitro microculture assay has an advantage over in vivo assays in that results are obtained within a week as opposed to several months. The MTT assay is based on the production of a dark blue formazan product by dehydrogenase in the mitochondria of live tumor cells after exposure to drug for 6 days [M.C. Alley, D.A. Scudiero, A. Monks, M.L. Hursey, M.J. Czerwinski, D.L. Fine, B.J. Abbott, J.G. Mayo, R.H. Shoemaker and M.R. Boyd, Cancer Res., 48, 589, 1988]. Thus, only live cells are stained and can be measured at 570 nm. […]

The subject of test [2] is HOP-92. As to conditions: HOP-92, read-out: Log10 LC50 (converted).
Excerpt: as §1, §2, §3, §4, §5

Test [3] deals with A549/ATCC. The note with it: A549, read-out: Log10 LC50 (converted).
Excerpt: as §1, §2, §3, §4, §5

For test [4], the system named is IGROV1. The note with it: IGROV-1, read-out: Log10 LC50 (converted).
Excerpt: as §1, §2, §3, §4, §5

The subject of test [5] is HCT-116. As to conditions: HCT-116, read-out: Log10 LC50 (converted).
Excerpt: as §1, §2, §3, §4, §5

For test [6], the system named is OVCAR-4. The note with it: OVCAR-4, read-out: Log10 LC50 (converted).
Excerpt: as §1, §2, §3, §4, §5

Test [7] concerns OVCAR-5. The note with it: OVCAR-5, read-out: Log10 LC50 (converted).
Excerpt: as §1, §2, §3, §4, §5

Test [8] deals with SW-620. The note with it: SW-620, read-out: Log10 LC50 (converted).
Excerpt: as §1, §2, §3, §4, §5

For test [9], the system named is NCI-H322M. As to conditions: read-out: Log10 LC50 (converted).
Excerpt: as §1, §2, §3, §4, §5

The test system of test [10] is HCT-15. The note with it: HCT-15, read-out: Log10 LC50 (converted).
Excerpt: as §1, §2, §3, §4, §5

Test [11] deals with DU-145. As to conditions: DU-145, read-out: Log10 LC50 (converted).
Excerpt: as §1, §2, §3, §4, §5

Test [12] relates to SR. As to conditions: read-out: Log10 LC50 (converted).
Excerpt: as §1, §2, §3, §4, §5

Test [13] concerns SF-539. The note with it: SF-539, read-out: Log10 LC50 (converted).
Excerpt: as §1, §2, §3, §4, §5

Test [14] relates to MDA-N. As to conditions: read-out: Log10 LC50 (converted).
Excerpt: as §1, §2, §3, §4, §5

Test [15] has as its system NCI-H460. The note with it: NCI-H460, read-out: Log10 LC50 (converted).
Excerpt: as §1, §2, §3, §4, §5

Test [16] relates to BT-549. The note with it: BT-549, read-out: Log10 LC50 (converted).
Excerpt: as §1, §2, §3, §4, §5

For test [17], the system named is CCRF-CEM. As to conditions: read-out: Log10 LC50 (converted).
Excerpt: as §1, §2, §3, §4, §5

Test [18] concerns NCI-H522. As to conditions: NCI-H522, read-out: Log10 LC50 (converted).
Excerpt: as §1, §2, §3, §4, §5

The subject of test [19] is LOX IMVI. The note with it: read-out: Log10 LC50 (converted).
Excerpt: as §1, §2, §3, §4, §5

Test [20] deals with 786-0. The note with it: 786-0, read-out: Log10 LC50 (converted).
Excerpt: as §1, §2, §3, §4, §5

Test [21] relates to ACHN. As to conditions: read-out: Log10 LC50 (converted).
Excerpt: as §1, §2, §3, §4, §5

Test [22] has as its system MOLT-4. The note with it: MOLT-4, read-out: Log10 LC50 (converted).
Excerpt: as §1, §2, §3, §4, §5

Consider `O=Cc1ccc(-c2ccc(-c3ccc(C=O)[se]3)s2)s1`, for which the CC50 in test [1] is more than 100 µM; in test [2], more than 100 µM; in test [3], more than 100 µM; in [4] it was 91.2 µM; in [5], more than 100 µM; in test [6], more than 100 µM. Moreover, the CC50 in test [7], in test [8], in test [10], in [11], in [12] and in test [13] was more than 100 µM each time. Moreover, the CC50 was more than 100 µM in [16]; more than 100 µM in [17]; more than 100 µM in [18]; more than 100 µM in test [19]; 64.6 µM in test [20]; more than 100 µM in test [21]. For the same compound, in test [22], the CC50 was more than 100 µM. Further, the LC50 (concentration killing 50% of cells) in test [9] and in test [15] was more than 100 µM throughout. Further, the LC50 (50% lethal concentration) in test [14] is more than 100 µM.
Regarding `OCc1ccc(-c2ccc(-c3ccc[se]3)s2)[se]1`, the CC50 in [1] is more than 100 µM; in test [2] it was more than 100 µM; in test [3], more than 100 µM; in test [4], 51.3 µM; in test [5], more than 100 µM; in test [6], more than 100 µM. In addition, the CC50 in test [8] is more than 100 µM; in test [10], more than 100 µM; in [11], more than 100 µM; in test [12], more than 100 µM; in test [13], more than 100 µM; in [16] it was 87.1 µM. Besides, the CC50 is more than 100 µM in test [17]; 55 µM in [18]; 85.1 µM in [19]; more than 100 µM in [20]; more than 100 µM in test [21]; more than 100 µM in test [22]. Moreover, the LC50 (concentration killing 50% of cells) in test [9] and in test [15] was more than 100 µM each time. Further, the LC50 (50% lethal concentration) in [14] is more than 100 µM.
As for `OCc1ccc(-c2ccc(-c3ccc[se]3)[se]2)[se]1`, the CC50 in test [1] was 61.7 µM; in [2], 38 µM; in [3], 46.8 µM; in [4], 12.3 µM; in test [5] it was 32.4 µM; in [6], 47.9 µM. Moreover, the CC50 is more than 100 µM in test [7]; 35.5 µM in test [8]; more than 100 µM in test [10]; 46.8 µM in test [11]; more than 100 µM in test [12]; 51.3 µM in [13]. The CC50 in test [17] is more than 100 µM; in [18], 23.4 µM; in test [19] it was 37.2 µM; in [20], 17.4 µM; in [22] it was more than 100 µM. For the same compound, the results for the LC50 (concentration killing 50% of cells) in [9] and in test [15] were 47.9 µM and 22.9 µM, respectively. In addition, the LC50 (50% lethal concentration) in [14] was more than 100 µM.
As for `OCc1ccc(-c2ccc(-c3ccc(CO)s3)[se]2)s1`, the CC50 in test [1], in test [2], in test [3], in [5], in [6] and in test [7] was more than 100 µM throughout. Further, the CC50 in test [8], in [10], in test [11], in test [12], in [13] and in test [16] was more than 100 µM each time. For the same compound, the CC50 in [17], in [18], in test [19], in [20], in test [21] and in test [22] was more than 100 µM each time. For the same compound, the LC50 (concentration killing 50% of cells) in [9] and in test [15] was more than 100 µM each time. For the same compound, in test [14], the LC50 (50% lethal concentration) was more than 100 µM.
On to `OCc1ccc(-c2ccc(-c3ccc(CO)[se]3)s2)[se]1`, for which the CC50 is more than 100 µM in test [1]; 0.324 µM in test [2]; more than 100 µM in test [3]; more than 100 µM in [4]; more than 100 µM in [5]; more than 100 µM in test [6]. Also, the CC50 in test [7] was 0.776 µM; in test [8], more than 100 µM; in test [10], more than 100 µM; in [11], more than 100 µM; in test [12] it was more than 100 µM; in test [13] it was more than 100 µM. Moreover, the CC50 in test [16], in test [17], in test [19], in test [20], in test [21] and in test [22] was more than 100 µM each time. Besides, the LC50 (concentration killing 50% of cells) in test [9] and in [15] was more than 100 µM throughout. In addition, in [14], the LC50 (50% lethal concentration) is more than 100 µM.
Regarding `O=Cc1ccc(-c2ccc(-c3ccc[se]3)[se]2)[se]1`, the CC50 in test [1] was 72.4 µM; in test [2] it was 63.1 µM; in [3], 51.3 µM; in [4], 39.8 µM; in [5] it was 38.9 µM; in test [6] it was 60.3 µM. For the same compound, the CC50 is 75.9 µM in test [7]; 79.4 µM in [10]; 51.3 µM in test [11]; 63.1 µM in test [13]; 79.4 µM in test [16]; more than 100 µM in test [17]. For the same compound, the CC50 in test [18] was 42.7 µM; in test [19], 77.6 µM; in test [20], 43.7 µM; in [21] it was 46.8 µM; in [22], more than 100 µM. The LC50 (concentration killing 50% of cells) in [9] was 60.3 µM; in test [15] it was 40.7 µM. In test [14], the LC50 (50% lethal concentration) is 64.6 µM.
